Source: patent publication US11111230B2 (ADLAI NORTYE BIOPHARMA CO., LTD., priority 2017, dated 2021)

Legend:
Hela cells = experiment: Activity in Hela cells (interferon-γ induced, kynurenine readout with Ehrlich's reagent); assay type: cell-based; conditions: Homo sapiens, interferon-γ 50 ng/mL, tryptophan 16 mg/L, 48 hours, absorption at 480 nm
Procedure: Example 1: Study on the Activity of the Compound of the Present Invention in Hela Cells
Hela cells were seeded in 96-well culture plates and incubated at 37° C., 100% relative humidity, 5% CO2 incubator for 24 hours. The compound was dissolved in DMSO and diluted to an appropriate concentration, and then the compound was diluted 100-fold with DMEM medium containing interferon-γ and 10% fetal bovine serum to the final concentration of effect. Aspirate the old medium from the 96-well plate and add 200 μL of each medium containing compound and interferon-γ from the previous step. The content of tryptophan in the medium is 16 mg/L, and the concentration of interferon-γ is 50 ng/mL. The cells were placed in a 37° C., 100% relative humidity, and 5% CO2 incubator for 48 hours, then 140 μL of the cell culture supernatant was mixed with 15 μL of trichloroacetic acid, and placed at 52° C. for 30 min, then centrifuged at room temperature to take the centrifugal supernatant. Mix with an equal volume of Ehrlich's reagent, measure the light absorption at 480 nm, and calculate the IC50 values.

human IDO1 protein = molecular target: T1, human IDO1 protein (Homo sapiens, UniProt P14902); experiment: Activity in HEK293 cells highly expressing human IDO1 protein; assay type: cell-based; conditions: HEK293-IDO cells, tryptophan 16 mg/L, 24 hours, absorption at 480 nm; read-out: IC50 (HEK293 cell)
T1 construct: expressed in transfected cells; host or cells: HEK293
T1 sequence (P14902 whole entry): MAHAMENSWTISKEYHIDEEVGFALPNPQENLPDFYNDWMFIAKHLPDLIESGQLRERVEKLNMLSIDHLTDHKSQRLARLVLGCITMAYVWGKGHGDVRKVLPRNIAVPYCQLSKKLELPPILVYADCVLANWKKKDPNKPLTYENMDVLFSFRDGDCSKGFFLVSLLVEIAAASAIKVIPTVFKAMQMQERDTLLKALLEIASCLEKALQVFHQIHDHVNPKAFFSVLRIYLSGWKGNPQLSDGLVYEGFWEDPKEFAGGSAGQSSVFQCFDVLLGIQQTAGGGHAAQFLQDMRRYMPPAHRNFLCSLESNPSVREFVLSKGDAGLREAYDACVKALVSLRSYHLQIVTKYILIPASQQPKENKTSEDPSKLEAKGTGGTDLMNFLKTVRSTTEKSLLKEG
Procedure: Example 2: Study on the Activity of the Present Invention in HEK293 Cells Highly Expressing Human IDO1 Protein
HEK293-IDO cells with high expression of human IDO1 protein were prepared by electrotransformation, and the cells were seeded in 96-well culture plates, and cultured at 37° C., 100% relative humidity, and 5% CO2 incubator for 24 hours. Dissolve in DMSO and dilute to the appropriate concentration, then use DMEM medium containing 10% fetal bovine serum to dilute the candidate 100-fold to the final concentration. Aspirate the old medium from the 96-well plate and add 200 μL of the medium contained in the previous step to each well. The content of tryptophan in the medium is 16 mg/L. The cells were placed in a 37° C., 100% relative humidity, and 5% CO2 incubator for 24 hours. 140 μL of the cell culture supernatant was mixed with 15 μL of trichloroacetic acid and placed at 52° C. for 30 min. Mix with an equal volume of Ehrlich's reagent, measure the light absorption at 480 nm, and calculate the IC50 values.

SMILES | IC50 (Hela cells) [nM] | IC50 (human IDO1 protein) [nM]
Cc1ccc(NC(=O)N2CC23CCC(c2ccnc4ccc(F)cc24)CC3)cc1 (centres unmarked) [Compound 24] | > 100 | –
O=C(Nc1ccc(F)cc1)C1COC12CCC(c1ccnc3ccc(F)cc13)CC2 (centres unmarked) [Compound 51] | 10 to 100 | –
COc1cc2nccc([C@H]3CC[C@@]4(CC3)C[C@H]4C(=O)Nc3ccc(Cl)cc3)c2cc1F (single isomer, unassigned) [Compound 109] | > 100 | > 100
CN1CC(C(=O)Nc2ccc(C(F)(F)F)cc2)C2(CCC(c3ccnc4ccc(F)cc34)CC2)C1 (centres unmarked) [Compound 89] | > 100 | –
O=C(Nc1ccc(Cl)cc1)C1CC12CCC(O)(c1ccnc3ccc(F)cc13)CC2 (centres unmarked) [Compound 104, N-(4-chlorophenyl)-6-(6-fluoroquinolin-4-yl)-6-hydroxyspiro[2.5]octane-1-carboxamide] | > 100 | > 100
Cc1cc2nccc(C3CCC4(CC3)CC4C(=O)Nc3ccc(Cl)nc3)c2cc1F (centres unmarked) [Compound 95, N-(6-chloropyridin-3-yl)-6-(6-fluoro-7-methylquinolin-4-yl)spiro[2.5]octane-1-carboxamide] | 0.1 to 10 | 10 to 100
Cc1cc2nccc(C3CCC4(CC3)CC4C(=O)Nc3ccc(Cl)c(F)c3)c2cc1F (centres unmarked) [Compound 86] | 0.1 to 10 | –
O=C(Nc1ccc(F)cc1)C1CC12CCC(c1ccnc3ccc(F)cc13)CC2 (centres unmarked) [Compound 2, N-(4-fluorophenyl)-6-(6-fluoroquinolin-4-yl)spiro[2.5]octane-1-carboxamide] | 10 to 100 | 10 to 100
Cc1cc2nccc([C@H]3CC[C@@]4(CC3)C[C@H]4C(=O)Nc3ccc(Cl)cc3)c2cc1F (single isomer, unassigned) [Compound 93] | > 100 | > 100
Cc1cc2nccc(C3CCC4(CC3)CC4C(=O)Nc3ccc(F)cc3)c2cc1F (centres unmarked) [Compound 80, 6-(6-fluoro-7-methylquinolin-4-yl)-N-(4-fluorophenyl)spiro[2.5]octane-1-carboxamide] | 0.1 to 10 | –
Cc1cc2nccc(C3CCC4(CC3)CC4C(=O)Nc3ccc(C#N)cc3)c2cc1F (centres unmarked) [Compound 81] | 0.1 to 10 | –
COc1cc2nccc([C@H]3CC[C@@]4(CC3)C[C@@H]4C(=O)Nc3ccc(Cl)cc3)c2cc1F (single isomer, unassigned) [Compound 108] | 0.1 to 10 | 0.1 to 10
N#CC1(C(=O)Nc2ccc(Cl)cc2)CC12CCC(c1ccnc3ccc(F)cc13)CC2 (centres unmarked) [Compound 107, N-(4-chlorophenyl)-1-cyano-6-(6-fluoroquinolin-4-yl)spiro[2.5]octane-1-carboxamide] | > 100 | > 100
N#Cc1ccc(NC(=O)C2CC23CCC(c2ccnc4ccc(F)cc24)CC3)cc1 (centres unmarked) [Compound 6, N-(4-cyanophenyl)-6-(6-fluoroquinolin-4-yl)spiro[2.5]octane-1-carboxamide] | 10 to 100 | 10 to 100
CC1(C(=O)Nc2ccc(Cl)cc2)CC12CCC(c1ccnc3ccc(F)cc13)CC2 (centres unmarked) [Compound 106, N-(4-chlorophenyl)-6-(6-fluoroquinolin-4-yl)-1-methylspiro[2.5]octane-1-carboxamide] | > 100 | > 100
O=C(Nc1ccc(Cl)cc1)[C@H]1CC12CCC(c1ccnc3ccc(F)cc13)CC2 (single isomer, unassigned) [Compound 10a] | 0.1 to 10 | 0.1 to 10
CN1CC(C(=O)Nc2ccc(Cl)cc2)C2(CCC(c3ccnc4ccc(F)cc34)CC2)C1 (centres unmarked) [Compound 87, N-(4-chlorophenyl)-8-(6-fluoroquinolin-4-yl)-2-methyl-2-azaspiro[4.5]decane-4-carboxamide] | > 100 | –
Cc1cc2nccc(C3CCC4(CC3)CC4C(=O)Nc3cncc(Cl)c3)c2cc1F (centres unmarked) [Compound 96] | 10 to 100 | > 100
O=C(Nc1ccc(C(F)(F)F)cc1)C1CC12CCC(c1ccnc3ccc(F)cc13)CC2 (centres unmarked) [Compound 5, 6-(6-fluoroquinolin-4-yl)-N-(4-(trifluoromethyl)phenyl)spiro[2.5]octane-1-carboxamide] | > 100 | 10 to 100
COc1ccc(NS(=O)(=O)C2CC23CCC(c2ccnc4ccc(F)cc24)CC3)cc1 (centres unmarked) [Compound 17] | 0.1 to 10 | –
Cc1cc2nccc(C3CCC4(CC3)CC4C(=O)Nc3ccc(Cl)cc3)c2cc1F (centres unmarked) [Compound 9, N-(4-chlorophenyl)-6-(6-fluoro-7-methylquinolin-4-yl)spiro[2.5]octane-1-carboxamide] | 0.1 to 10 | 0.1 to 10
Cc1ccc(NS(=O)(=O)C2CC23CCC(c2ccnc4ccc(F)cc24)CC3)cc1 (centres unmarked) [Compound 18] | 0.1 to 10 | –

SMILES | IC50 (Hela cells) [nM] | IC50 (human IDO1 protein) [nM]
Cc1ccc(NC(=O)C2CC23CCC(c2ccnc4cc(C)c(F)cc24)CC3)cc1 (centres unmarked) [Compound 83] | 0.1 to 10 | –
O=C(Nc1ccc(Cl)nc1)C1CC12CCC(c1ccnc3ccc(F)cc13)CC2 (centres unmarked) [Compound 7, N-(6-chloropyridin-3-yl)-6-(6-fluoroquinolin-4-yl)spiro[2.5]octane-1-carboxamide] | 10 to 100 | 10 to 100
COc1cc2nccc(C3CCC4(CC3)CC4C(=O)Nc3ccc(Cl)cc3)c2cc1F (centres unmarked) [Compound 105, N-(4-chlorophenyl)-6-(6-fluoro-7-methoxyquinolin-4-yl)spiro[2.5]octane-1-carboxamide] | 10 to 100 | 0.1 to 10
COCCOc1ccc(NC(=O)C2CC23CCC(c2ccnc4cc(C)c(F)cc24)CC3)cc1 (centres unmarked) [Compound 94, 6-(6-fluoro-7-methylquinolin-4-yl)-N-(4-(2-methoxyethoxy)phenyl)spiro[2.5]octane-1-carboxamide] | 0.1 to 10 | 10 to 100
O=C(Nc1ccc(C(F)(F)F)cc1)C1COC12CCC(c1ccnc3ccc(F)cc13)CC2 (centres unmarked) [Compound 52] | 10 to 100 | –
COC(=O)COc1ccc(NC(=O)C2CC23CCC(c2ccnc4cc(C)c(F)cc24)CC3)cc1 (centres unmarked) [Compound 111, Methyl 2-(4-(6-(6-fluoro-7-methylquinolin-4-yl)spiro[2.5]octane-1-carboxamido)phenoxy)acetate] | > 100 | > 100
O=C(Nc1ccc(Br)cc1)C1CC12CCC(c1ccnc3ccc(F)cc13)CC2 (centres unmarked) [Compound 11, N-(4-bromophenyl)-6-(6-fluoroquinolin-4-yl)spiro[2.5]octane-1-carboxamide] | 0.1 to 10 | 10 to 100
Cc1cc2nccc(C3CCC4(CC3)CC4C(=O)Nc3ccc(C(F)(F)F)cc3)c2cc1F (centres unmarked) [Compound 82] | 0.1 to 10 | –
CN1CC(C(=O)Nc2ccc(Br)cc2)C2(CCC(c3ccnc4ccc(F)cc34)CC2)C1 (centres unmarked) [Compound 90] | > 100 | –
O=S(=O)(Nc1ccc(F)cc1)C1CC12CCC(c1ccnc3ccc(F)cc13)CC2 (centres unmarked) [Compound 15] | 0.1 to 10 | –
COc1ccc(NC(=O)C2COC23CCC(c2ccnc4ccc(F)cc24)CC3)cc1 (centres unmarked) [Compound 53] | 10 to 100 | –
COc1ccc(NC(=O)C2CC23CCC(c2ccnc4cc(C)c(F)cc24)CC3)cc1 (centres unmarked) [Compound 84] | 0.1 to 10 | –
Cc1cc2nccc(C3CCC4(CC3)CC4C(=O)Nc3ccc(Br)cc3)c2cc1F (centres unmarked) [Compound 85] | 0.1 to 10 | –
CN1CC(C(=O)Nc2ccc(F)cc2)C2(CCC(c3ccnc4ccc(F)cc34)CC2)C1 (centres unmarked) [Compound 88] | > 100 | –
O=S(=O)(Nc1ccc(C(F)(F)F)cc1)C1CC12CCC(c1ccnc3ccc(F)cc13)CC2 (centres unmarked) [Compound 16] | 0.1 to 10 | –
N#Cc1ccc(NS(=O)(=O)C2CC23CCC(c2ccnc4ccc(F)cc24)CC3)cc1 (centres unmarked) [Compound 19] | 0.1 to 10 | –
CN1CC(C(=O)Nc2ccc(C#N)cc2)C2(CCC(c3ccnc4ccc(F)cc34)CC2)C1 (centres unmarked) [Compound 91] | > 100 | –
COCc1cc2nccc(C3CCC4(CC3)CC4C(=O)Nc3ccc(Cl)cc3)c2cc1F (centres unmarked) [Compound 115, N-(4-chlorophenyl)-6-(6-fluoro-7-(methoxymethyl)quinolin-4-yl)spiro[2.5]octane-1-carb oxamide] | 0.1 to 10 | –
O=C(Nc1ccc(Cl)cc1)C1COC12CCC(c1ccnc3ccc(F)cc13)CC2 (centres unmarked) [Compound 50, N-(4-chlorophenyl)-7-(6-fluoroquinolin-4-yl)-1-oxaspiro[3.5]nonane-3-carboxamide] | 10 to 100 | –
O=S(=O)(Nc1ccc(Cl)cc1)C1CC12CCC(c1ccnc3ccc(F)cc13)CC2 (centres unmarked) [Compound 14, N-(4-chlorophenyl)-6-(6-fluoroquinolin-4-yl)spiro[2.5]octane-1-sulfonamide] | 0.1 to 10 | –
N#Cc1ccc(NC(=O)C2COC23CCC(c2ccnc4ccc(F)cc24)CC3)cc1 (centres unmarked) [Compound 55] | 10 to 100 | –
Cc1ccc(NC(=O)C2COC23CCC(c2ccnc4ccc(F)cc24)CC3)cc1 (centres unmarked) [Compound 54] | 10 to 100 | –
